Source: patent publication US20210169910A1, “OLEUROPEIN FOR USE IN REDUCING POST-PRANDIAL GLYCAEMIA” (Università degli Studi di Roma "La Sapienza", priority 2017, published 2021)

Legend:
Format in all cases: in vivo, human
p47phox = experiment: Western blot analysis of platelet p47phox phosphorylation, post-prandial cross-over study; conditions: healthy subjects (n=5), 20 mg immediately before lunch, T120 vs T0
Protocol: (§1) The design was a randomized, double blind, placebo controlled, crossover study (FIG. 1). Participants were randomized to receive 20 mg of oleuropein or 20 mg of placebo immediately before a lunch. The randomization was carried out by a procedure based on a random numeric sequence. Placebo and active capsules were identical in appearance and both were odourless. The quality control on both capsules was performed confirming their safety. None of the participants were receiving any vitamin or antioxidant supplements, statin or antiplatelet drugs in the month preceding the beginning of the study. […] Participants were assessed at baseline (T0) and two hours after lunch (T120). Glycaemic profile, which included glucose, insulin, dipeptidyl-peptidase-4 (DPP-4) activity and glucagon-like peptide-(GLP-1) and oxidative stress, which included sNox2-dp, 8-iso-PGF2α and platelet p47phox phosphorylation, were analysed before and two hours after meal. […]
p47^phox phosphorylation was analysed in platelets prepared as previously described [13 Carnevale et al., 2014 a)]. […] Then, the membranes were incubated with goat anti-rabbit secondary antibody (Santa Cruz Biotechnology—Product Code sc2004, 1:5000) or with goat anti-mouse secondary antibody (Santa Cruz Biotechnology—Product Code sc2005, 1:5000) and then the immune complexes were detected by enhanced chemiluminescence substrate. […]

Nox2 = experiment: Serum Nox2 measured as soluble Nox2-derived peptide (sNox2dp) by ELISA, post-prandial cross-over study; conditions: healthy subjects (n=20), 20 mg immediately before lunch, T120 (2 h after meal) vs T0
Protocol: as §1
Serum Nox2 was measured as soluble Nox2-derived peptide (sNOX2dp) with an ELISA method, which was partly modified in comparison to that previously reported (Pignatelli et al., 2010; WO 2010142794 A1). […]
4) quantification of immobilized antibody enzyme conjugates by monitoring HRP activities in the presence of the substrate 3,3′,5,5′-tetramethylbenzidine (TMB). […] Values were expressed as pg/ml; intra-assay and inter-assay coefficients of variation were <10%.

[1] = Serum glucose concentration, post-prandial cross-over study
Protocol: as §1, with “study. Others exclusion criteria were: i) presence of malignancy, ii) presence of chronic inflammatory diseases, iii) alcohol intake, iv) smoking, v) pregnant or breast-feeding, vi) age less than 18 years.” for “study.”
(§2) Glucose and insulin were measured in serum samples using ELISA commercial Kit (Arbor Assay and DRG International, respectively). Glucose values were expressed as mg/dl whereas insulin values were expressed as μIU/ml.

GLP1 = experiment: Serum glucagon like peptide-1 (GLP1) concentration, post-prandial cross-over study; conditions: healthy subjects (n=20), 20 mg immediately before lunch, T120 vs T0
Protocol: as §1, with “study. Others exclusion criteria were: i) presence of malignancy, ii) presence of chronic inflammatory diseases, iii) alcohol intake, iv) smoking, v) pregnant or breast-feeding, vi) age less than 18 years.” for “study.”
Commercial ELISA Kit (DRG International) was used for the quantitative determination of bioactive GLP1 (7-36) and (9-36) levels in serum. GLP1 values are expressed as pmol/L.

insulin = experiment: Serum insulin concentration, post-prandial cross-over study; conditions: healthy subjects (n=20), 20 mg immediately before lunch, T120 vs T0
Protocol: as §1, with “study. Others exclusion criteria were: i) presence of malignancy, ii) presence of chronic inflammatory diseases, iii) alcohol intake, iv) smoking, v) pregnant or breast-feeding, vi) age less than 18 years.” for “study.”
as §2

DPP-4 = experiment: Serum dipeptidyl peptidase-4 (DPP-4) activity, post-prandial cross-over study; conditions: healthy subjects (n=20), 20 mg immediately before lunch, T120 vs T0
Protocol: as §1, with “study. Others exclusion criteria were: i) presence of malignancy, ii) presence of chronic inflammatory diseases, iii) alcohol intake, iv) smoking, v) pregnant or breast-feeding, vi) age less than 18 years.” for “study.”
DDP4 activity was evaluated in serum samples by a commercial assay (Sigma Aldrich). […] DDP4 activity was expressed as μU/ml, where one unit of DPP4 is the amount of enzyme that will hydrolyze the DPP4 substrate to yield 1.0 μmole of AMC per minute at 37° C.

8-iso-PGF2α = experiment: Serum isoprostanes (8-iso-PGF2α-III) enzyme immunoassay, post-prandial cross-over study; conditions: healthy subjects (n=20), 20 mg immediately before lunch, T120 vs T0
Protocol: as §1, with “study. Others exclusion criteria were: i) presence of malignancy, ii) presence of chronic inflammatory diseases, iii) alcohol intake, iv) smoking, v) pregnant or breast-feeding, vi) age less than 18 years.” for “study.”
Serum isoprostanes (8-iso-PGF2α-III) were measured by the enzyme immunoassay method (DRG International) and expressed as pmol/L. Intra-assay and inter-assay coefficients of variation were <10%.

C/C=C1/[C@H](O[C@@H]2O[C@H](CO)[C@@H](O)[C@H](O)[C@H]2O)OC=C(C(=O)OC)[C@H]1CC(=O)OCCc1ccc(O)c(O)c1 [oleuropein]
platelet p47phox phosphorylation, Δ change compared to baseline (p47phox): 42% | sNox2-dp, Δ change compared to baseline (Nox2): 25% | blood glucose, Δ change compared to baseline ([1]; healthy subjects (n=20), 20 mg immediately before lunch, T120 vs T0): 2% | average reduction of glucose ([1]; healthy subjects, 20 mg versus placebo, post-prandial): 14 mg/dL | GLP1, Δ change compared to baseline (GLP1): 19% | blood insulin, Δ change compared to baseline (insulin): 116% | DPP-4 activity, Δ change compared to baseline (DPP-4): 35% | 8-iso-PGF2α, Δ change compared to baseline (8-iso-PGF2α): 8%
